Converted amounts (≈) assume the structure as drawn.
How the values were obtained:
[1] = Solubility of the compound; assay type: physicochemical
[2] = Metabolic stability in human liver microsomes assessed as parent compound remaining after 30 mins; assay type: ADME, Microsome; details: read-out: Stability
[3] = Metabolic stability in mouse liver microsomes assessed as parent compound remaining after 30 mins; assay type: ADME, Microsome; details: read-out: Stability
[4] = biological target: T1, Isocitrate dehydrogenase [NADP] cytoplasmic (Homo sapiens, UniProt O75874, R132C); test: Inhibition of IDH1 R132C mutant in human HCT116 cells assessed as reduction in 2-HG levels after 24 hrs by RapidFire high-throughput mass spectrometry assay; assay type: cell-based
Target sequence in this assay (O75874 whole entry R132C): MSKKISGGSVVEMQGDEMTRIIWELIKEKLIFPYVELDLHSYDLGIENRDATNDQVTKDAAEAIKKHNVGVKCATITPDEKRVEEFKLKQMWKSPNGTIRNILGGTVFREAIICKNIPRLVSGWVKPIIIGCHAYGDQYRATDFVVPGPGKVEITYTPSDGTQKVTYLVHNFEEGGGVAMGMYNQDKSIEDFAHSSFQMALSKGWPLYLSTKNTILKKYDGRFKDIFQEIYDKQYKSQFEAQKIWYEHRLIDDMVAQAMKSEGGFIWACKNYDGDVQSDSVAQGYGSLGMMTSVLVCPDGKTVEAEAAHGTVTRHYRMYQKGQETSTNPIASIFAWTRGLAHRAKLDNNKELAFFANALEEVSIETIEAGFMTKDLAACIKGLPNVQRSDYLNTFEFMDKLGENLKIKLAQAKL

[5] = biological target: T2, Isocitrate dehydrogenase [NADP] cytoplasmic (Homo sapiens, UniProt O75874, R132H); test: Inhibition of recombinant human Myc-DDK-tagged IDH1 R132H mutant using alpha-ketoglutarate as substrate preincubated for 15 mins followed by substrate and NADPH addition and measured after 45 mins by diaphorase/resazurin dye based assay
Target sequence in this assay (O75874 2-414 R132H limits assumed): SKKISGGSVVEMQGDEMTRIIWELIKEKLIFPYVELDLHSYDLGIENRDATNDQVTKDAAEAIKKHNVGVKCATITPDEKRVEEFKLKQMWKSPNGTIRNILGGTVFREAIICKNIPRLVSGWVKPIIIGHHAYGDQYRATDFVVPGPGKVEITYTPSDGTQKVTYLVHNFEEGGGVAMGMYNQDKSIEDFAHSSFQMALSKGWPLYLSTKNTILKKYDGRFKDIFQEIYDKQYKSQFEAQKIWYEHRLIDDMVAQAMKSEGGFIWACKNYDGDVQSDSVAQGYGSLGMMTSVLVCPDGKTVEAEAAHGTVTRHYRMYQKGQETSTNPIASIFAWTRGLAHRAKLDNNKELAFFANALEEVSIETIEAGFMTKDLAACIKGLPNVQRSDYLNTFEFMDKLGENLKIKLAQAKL

[6] = biological target: T2, Isocitrate dehydrogenase [NADP] cytoplasmic; test: Inhibition of IDH1 R132H mutant in human HCT116 cells assessed as reduction in 2-HG levels after 24 hrs by RapidFire high-throughput mass spectrometry assay; assay type: cell-based
Target sequence in this assay (O75874 whole entry R132H): as the sequence (O75874 whole entry R132C) above, with C132H counted along it

[7] = biological target: T1, Isocitrate dehydrogenase [NADP] cytoplasmic; test: Inhibition of recombinant human Myc-DDK-tagged IDH1 R132C mutant using alpha-ketoglutarate as substrate preincubated for 15 mins followed by substrate and NADPH addition and measured after 45 mins by diaphorase/resazurin dye based assay
Target sequence in this assay (O75874 2-414 R132C limits assumed): as the sequence (O75874 2-414 R132H limits assumed) above, with H131C counted along it

[8] = Time at which fCmax required to show >90% suppression of 2-HG level in human HCT116 cells xenografted BALB/c nude mouse in CD1 mouse at 100 mg/kg, po; assay type: ADME, organism-based; details: in vivo
[9] = Apparent permeability across basolateral to apical side in human Caco2 cells; assay type: ADME, cell-based; details: caco-2
[10] = Free Cmax in CD1 mouse at 100 mg/kg, po administered as single dose measured after 7 hrs; assay type: ADME, organism-based; details: in vivo
[11] = Free Cmax in CD1 mouse at 100 mg/kg, po administered as single dose; assay type: ADME, organism-based; details: in vivo
[12] = Permeability of the compound by PAMPA; assay type: ADME; details: read-out: permeability
Mus musculus [13] = test: In vivo inhibition of IDH1 R132H mutant in human HCT116 cells xenografted in BALB/c nude mouse assessed as reduction in tumor 2-HG level at 50 mg/kg, po administered at 12 hrs intervals for 3 times measured up to 24 hrs post-last dose by LC-MS analysis relative to control; assay type: functional; details: HCT-116, po
[14] = Apparent permeability across apical to basolateral side in human Caco2 cells; assay type: ADME, cell-based; details: caco-2
Mus musculus [15] = test: In vivo inhibition of IDH1 R132C mutant in human HCT116 cells xenografted in po dosed BALB/c nude mouse assessed as reduction in tumor 2-HG level administered at 12 hrs intervals for 3 times measured up to 24 hrs post-last dose by LC-MS analysis; assay type: functional
Mus musculus [16] = test: In vivo inhibition of IDH1 R132C mutant in human HCT116 cells xenografted in BALB/c nude mouse assessed as reduction in tumor 2-HG level at 50 mg/kg, po administered at 12 hrs intervals for 3 times measured at 12 to 24 hrs post-last dose by LC-MS analysis relative to control; assay type: functional; details: HCT-116, po
Mus musculus [17] = test: In vivo inhibition of IDH1 R132H mutant in human HCT116 cells xenografted in po dosed BALB/c nude mouse assessed as reduction in tumor 2-HG level administered at 12 hrs intervals for 3 times measured up to 24 hrs post-last dose by LC-MS analysis; assay type: functional
[18] = Kinetic solubility of the compound at pH 7.4; assay type: physicochemical; details: buffer, read-out: Kinetic_solubility

solubility [1] | remaining at 0.5 h [2] | remaining at 0.5 h [3] | IC50 [5] | SMILES | also measured
11.6 µM (≈ 4.46 µg/mL) | 83% |  |  | COc1cc2[nH]c(=O)c([C@H](C)Nc3ccc(C#N)n(C)c3=O)cc2cc1Cl | 
54 µM (≈ 17.1 µg/mL) | 90% | 26% |  | Cn1cccc(NCc2cc3cc(Cl)ccc3[nH]c2=O)c1=O | 
18 µM (≈ 6.71 µg/mL) | 100% |  | 25 nM | C[C@H](Nc1ccc(C#N)n(C)c1=O)c1cc2cc(Cl)c(F)cc2[nH]c1=O | IC50 [4]: 104 nM; IC50 [6]: 22 nM; IC50 [7]: 159 nM
2.21 µM (≈ 0.722 µg/mL) | 100% | 86% | 64.7 nM | N#Cc1ccc(NCc2cc3cc(Cl)ccc3[nH]c2=O)c(=O)[nH]1 | 
56 µM (≈ 19.1 µg/mL) | 78% | 7% |  | O=c1[nH]c2ccc(Cl)cc2cc1CNc1cccn(C2CC2)c1=O | 
0.53 µM (≈ 0.225 µg/mL) | 82% |  |  | C[C@H](Nc1ccc(C#N)n(C)c1=O)c1cc2cc(Cl)c(OCC3CC3)cc2[nH]c1=O | 
< 0.1 µM | 85% | 67% | 160 nM | Cn1c(C(F)(F)F)ccc(NCc2cc3cc(Cl)ccc3[nH]c2=O)c1=O | 
2.5 µM (≈ 1.15 µg/mL) | 66% |  |  | C[C@H](Nc1ccc(C#N)n(C)c1=O)c1cc2cc(Cl)c(OCc3ccccn3)cc2[nH]c1=O | 
1.6 µM (≈ 0.761 µg/mL) | 70% |  |  | C[C@H](Nc1ccc(C#N)n(C)c1=O)c1cc2cc(Cl)c(O[C@H](C)c3ccccn3)cc2[nH]c1=O | 
0.28 µM (≈ 0.0881 µg/mL) | 78% | 19% | > 25000 nM | COc1cccc(NCc2cc3cc(Cl)ccc3[nH]c2=O)c1 | 
94 µM (≈ 30.1 µg/mL) | 99% | 83% | 25000 nM | CN1CCCC(NCc2cc3cc(Cl)ccc3[nH]c2=O)C1=O (stereo unspecified) | 
0.295 µM (≈ 0.101 µg/mL) | 99% | 73% |  | Cn1c(C#N)ccc(NCc2cc3cc(Cl)ccc3[nH]c2=O)c1=O | 
10 µM (≈ 3.3 µg/mL) | 72% | 7% |  | CCn1cccc(NCc2cc3cc(Cl)ccc3[nH]c2=O)c1=O | 
34.5 µM (≈ 12.2 µg/mL) | 100% | 92% |  | C[C@H](Nc1ccc(C#N)n(C)c1=O)c1cc2cc(Cl)ccc2[nH]c1=O [OLUTASIDENIB] | Time [8]: 7 h; Papp [9]: 9.01 ×10⁻⁶ cm/s; fCmax [10]: 130 nM; fCmax [11]: 200 nM; Papp [12]: 19.9 ×10⁻⁶ cm/s; inhibition in vivo at 50 mg/kg (Mus musculus [13]): > 90%; Papp [14]: 12.12 ×10⁻⁶ cm/s; fIC50 (Mus musculus [15]): 36 nM; inhibition in vivo at 50 mg/kg (Mus musculus [16]): > 90%; fIC50 (Mus musculus [17]): 26 nM; solubility kinetic [18]: 35.4 µM (≈ 12.6 µg/mL)
